For series [1], the system named is plasma bilirubin binding sites (e.g. albumin). Put plainly: Bilirubin binding panel (peroxidase test, before and after bilirubin enrichment) in plasma of 31 newborns <28 weeks gestation. Also noted: species or system human. An excerpt:
[formula] can be readily solved by for BTmax and KA by measuring BTotal and BFree before and after enrichment of the sample with bilirubin to provide BTotal, BFree, and BTotal_2, BFree_2. These provide two equations with two unknowns (BTmax and KA), that can be solved for BTmax as shown below:
(§1) This test is used clinically in Japan.
(§2) BFree is obtained by measuring BFss at the additional HRP concentration and using […]

Another series addresses human defatted albumin (Homo sapiens, UniProt P02768). Put plainly: Bilirubin binding isotherm in artificial serum containing human defatted albumin (peroxidase test). Conditions: albumin 3.0 g/dL. Here is the method:
FIG. 5 illustrates the change in BFree (black dots) as BTotal increases. The negative intercept of 1/BFree versus 1/BTotal, i.e. KA, is […] and the negative slope/intercept, i.e. BTmax, is 37.5 mg/dL. The BTmax and KA in Table 3 are calculated as described above using the lowest BTotal (8.3 mg/dL) and BFree (0.51 μg/dL) paired with each of the other five measures of BTotal and BFree. The mean BTmax and KA of all 15 possible pairings in TABLE 4 are 39.1 mg/dL and 0.56 dL/μg, respectively.
Non-linear regression analysis of the molar ratios versus the BFree from TABLE 3 were used to determine the best fit K1 (0.93 dL/μg) and K2 (0.04 dL/μg) using the stoichiometric equation
as §1, §2

For a further series, the target named is human albumin (Homo sapiens, UniProt P02768). Nature of the series: Bilirubin binding before and after adding sulfisoxazole to a bilirubin/human albumin sample. The source says:
The clinically relevant quantification of bilirubin binding are the mass action variables above (BTotal, BFree, BTotal_2, BFree_2, BTmax, and KA) constitute a Bilirubin Binding Panel (BBP). Optionally, BTmax and KA can be used to determine whether a newborn binds bilirubin normally.
Measuring Total and Unbound Bilirubin (BTotal and BFree): The peroxidase test (see, e.g., Jacobsen J, Wennberg R P. Determination of unbound bilirubin in the serum of newborns. Clin Chem 1974; 20:783-789) measures both BTotal and BFree. This test is used clinically in Japan. In alternative embodiments, novel modifications of methods as provided herein measure BFree at two horseradish peroxidase levels to accurately determine BFree and measure BTotal and BFree before and after bilirubin enrichment of a plasma or other blood sample to provide BTmax and KA to complete the Bilirubin Binding Panel (BBP) described herein. […] The peroxidase test is based on the horse radish peroxidase (HRP) catalyzed oxidation of bilirubin by peroxide. Bilirubin absorbs light maximally at 440 nm when no albumin is present and at 460 nm when bound to albumin. Bilirubin bound to albumin is protected from oxidation and only BFree is oxidized. The light absorbance at 440 nm (no albumin) or 460 nm (albumin present) decreases as bilirubin is oxidized, and the reaction rate constant, Kp, can be determined using known bilirubin and HRP concentrations in solutions without albumin present (i.e. all the bilirubin is unbound or “free”) as shown in the equivalent velocity equations below: […]
BTotal is calculated from the absorbance prior to adding HRP and H2O2 and BFree from the change in absorbance following addition of HRP/H2O2 as further described below. […]
BTotal is calculated by dividing the initial absorbance by the known extinction coefficient (0.827/cm light path length for BTotal in […]) and BFree is calculated from the change in absorbance at 460 nm after adding HRP/H2O2. […]

Chain of human albumin (P02768 25-609): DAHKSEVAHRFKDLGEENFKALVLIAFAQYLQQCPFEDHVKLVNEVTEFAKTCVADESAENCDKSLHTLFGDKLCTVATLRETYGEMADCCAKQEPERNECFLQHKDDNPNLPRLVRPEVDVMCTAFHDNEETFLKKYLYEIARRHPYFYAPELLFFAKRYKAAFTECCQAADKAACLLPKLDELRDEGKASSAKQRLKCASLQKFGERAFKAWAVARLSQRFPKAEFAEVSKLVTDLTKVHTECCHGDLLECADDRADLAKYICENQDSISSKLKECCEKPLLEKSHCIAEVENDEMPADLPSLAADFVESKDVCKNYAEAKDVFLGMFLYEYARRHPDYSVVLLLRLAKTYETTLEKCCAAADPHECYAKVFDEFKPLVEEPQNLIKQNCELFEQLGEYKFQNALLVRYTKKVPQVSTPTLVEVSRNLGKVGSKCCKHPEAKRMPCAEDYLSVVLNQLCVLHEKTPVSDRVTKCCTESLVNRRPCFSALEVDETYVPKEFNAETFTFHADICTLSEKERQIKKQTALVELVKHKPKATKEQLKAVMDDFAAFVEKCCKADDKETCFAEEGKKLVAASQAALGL
Chain of human defatted albumin (P02768 25-609): as above

For `C=CC1=C(C)/C(=C/c2[nH]c(Cc3[nH]c(/C=C4\NC(=O)C(C)=C4C=C)c(C)c3CCC(=O)O)c(CCC(=O)O)c2C)NC1=O` [bilirubin], the “BFree_2 (free bilirubin after bilirubin enrichment)” value was 1.1 to 3.3 µg/dL in series [1] (25th-75th percentile, after enrichment); 2.51 µg/dL in series [1] (mean, after enrichment (mean BTotal_2 13.8 mg/dL)); 1.93 µg/dL in series [1] (median, after enrichment (median BTotal_2 13.7 mg/dL)); 0.42 to 10.61 µg/dL in series [1] (range, after enrichment (BTotal_2 6.3-23.0 mg/dL)). Moreover, the BFree at human defatted albumin (BTotal 8.3 mg/dL (BTotal/ATotal molar ratio 0.31)) came to 0.51 µg/dL; on human defatted albumin (BTotal 11.7 mg/dL (molar ratio 0.44)) it was 0.92 µg/dL; on human defatted albumin (BTotal 18.5 mg/dL (molar ratio 0.69)), 1.70 µg/dL; on human defatted albumin (BTotal 22.2 mg/dL (molar ratio 0.83)), 2.39 µg/dL; at human defatted albumin (BTotal 28.3 mg/dL (molar ratio 1.06)) it was 6.05 µg/dL; on human defatted albumin (BTotal 31.3 mg/dL (molar ratio 1.18)), 9.88 µg/dL. The same compound returned a BFree at human albumin (human, 8.3 mg/dL, pH 7.4) of 0.51 µg/dL.

The compound `Cc1noc(NS(=O)(=O)c2ccc(N)cc2)c1C` [+ sulfa, sulfisoxazole] displayed a KA at human albumin (3.0 g/dL albumin, without or with sulfa) of 0.20 dL/µg. For the same compound, the “effect of adding sulfisoxazole on bilirubin BFree” value on human albumin (bilirubin/human albumin sample, 3.0 g/dL albumin) is “about doubles the BFree”.

For the origin of these results see US10712352B2, “Methods and devices for assessing in vivo toxic levels of bilirubin and diagnosing increased risk of bilirubin neurotoxicity” (NEOMETRIX DX, priority 2018, dated 2020).
